The results in this text go back to patent US20080269213A1, “8-Hydroxyquinoline compounds and methods thereof” (Wyeth, priority 2006, published 2008).

Assay [1] concerns the target T1, recombinant human Aggrecanase-2 Agg2-Phe628 (Homo sapiens, UniProt Q9UNA0).
T1 sequence (Q9UNA0 262-628 limits assumed): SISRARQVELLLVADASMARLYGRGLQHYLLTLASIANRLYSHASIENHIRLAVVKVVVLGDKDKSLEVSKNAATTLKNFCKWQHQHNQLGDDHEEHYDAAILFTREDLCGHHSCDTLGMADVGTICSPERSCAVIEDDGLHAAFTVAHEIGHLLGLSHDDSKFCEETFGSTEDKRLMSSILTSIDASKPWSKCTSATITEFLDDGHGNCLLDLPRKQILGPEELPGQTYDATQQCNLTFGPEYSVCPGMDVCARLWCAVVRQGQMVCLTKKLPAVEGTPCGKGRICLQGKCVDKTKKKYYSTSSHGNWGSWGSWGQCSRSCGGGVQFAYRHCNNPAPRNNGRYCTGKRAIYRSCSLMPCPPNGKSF
Description: Aggrecanase 2 in vitro enzyme assay (Agg-2 FRET, quenched fluorescent peptide substrate). Also noted: purified recombinant human Aggrecanase-2 Agg2-Phe628 (MW=41,737); This is a truncated form of full-length human aggrecanase-2; made in house; host or cells: CHO cells. The format is biochemical. As to conditions: for Agg-2 FRET Median PCT INHIB: concentration not given; for inhibition at […]: @ 1200 nM. The gist of the method:
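Kinetic fluorescence (λex 340, λem 420 nm) monitored over 40 min at 30 °C after adding 25 μM final Abz/Dnp brevican-based quenched peptide. Enzyme: recombinant truncated human Agg2-Phe628 from CHO, 0.5 μg/ml final, mixed with inhibitor first; buffer HEPES pH 7.5 with NaCl, CaCl2, CHAPS, glycerol; compounds in duplicate.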

A further assay has as its target T2, Agg-1 (Homo sapiens, UniProt O75173).
T2 sequence (O75173 213-837): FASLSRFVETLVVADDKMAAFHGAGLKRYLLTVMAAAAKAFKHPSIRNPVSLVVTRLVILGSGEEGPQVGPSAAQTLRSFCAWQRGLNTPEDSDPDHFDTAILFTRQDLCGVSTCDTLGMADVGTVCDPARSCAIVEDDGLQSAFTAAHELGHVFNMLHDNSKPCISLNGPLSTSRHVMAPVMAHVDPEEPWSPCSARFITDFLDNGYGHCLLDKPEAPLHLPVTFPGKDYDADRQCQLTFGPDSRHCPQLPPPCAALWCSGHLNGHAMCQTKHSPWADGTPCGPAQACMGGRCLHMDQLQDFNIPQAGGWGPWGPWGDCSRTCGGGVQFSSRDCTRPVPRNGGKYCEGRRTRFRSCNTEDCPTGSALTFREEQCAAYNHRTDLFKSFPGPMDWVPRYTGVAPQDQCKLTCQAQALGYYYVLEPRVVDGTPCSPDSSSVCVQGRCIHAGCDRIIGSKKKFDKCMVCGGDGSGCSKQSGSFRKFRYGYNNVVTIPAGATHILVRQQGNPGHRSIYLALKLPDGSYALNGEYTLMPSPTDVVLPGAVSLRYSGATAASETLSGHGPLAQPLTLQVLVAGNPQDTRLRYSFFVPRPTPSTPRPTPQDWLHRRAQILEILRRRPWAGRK
The assay is described as follows: Agg-1 FRET assay. The format is biochemical. Conditions: for IC50: read-out: Agg1 IC50; for inhibition at 7.4 µM: @ 7400 nM. The text has this: The Agg-1/Agg-2 FRET data for N-[(8-hydroxyquinolin-2-yl)(phenyl)methyl]-2-phenoxyacetamide and 2-{[(phenoxyacetyl)amino](phenyl)methyl}quinolin-8-yl phenoxyacetate is presented in Table 1.

Setting [2] is: read-out: Agg-2 FRET Median IC50.

Where two headings read alike, the source gives them in different places.

Regarding `CC(C)c1ccc(OCC(=O)NC(c2ccccc2Cl)c2cc(Cl)c3cccnc3c2O)cc1` (stereo not shown) [N-[(5-chloro-8-hydroxyquinolin-7-yl)(2-chlorophenyl)methyl]-2-(4-isopropylphenoxy)acetamide], the IC50 in assay [1] (read-out: Agg2 IC50) came to 1.4 µM. Moreover, on Agg-1 (@ 50000 nM, read-out: Agg1 %), the inhibition at 50 µM amounted to 56%.

As to `O=C(CNCc1ccccc1)NC(c1ccccc1)c1cc(Cl)c2cccnc2c1O` (stereo not shown) [Example 223, N2-benzyl-N-[(5-chloro-8-hydroxyquinolin-7-yl)(phenyl)methyl]glycinamide], the IC50 in assay [1] (read-out: Agg2 IC50) was 3.75 µM; in assay [1] (setting [2]), 3.75 µM; on Agg-1, above 20 µM.

For the compound `O=C(CN1CCC(c2ccccc2)CC1)NC(c1ccccc1)c1cc(Cl)c2cccnc2c1O` (stereo not shown) [N-[(5-chloro-8-hydroxyquinolin-7-yl)(phenyl)methyl]-2-(4-phenylpiperidin-1-yl)acetamide], the “Agg-2 FRET Median PCT INHIB” value in assay [1] worked out at 57%. The figures for the IC50 (in assay [1] (read-out: Agg2 IC50); on Agg-1) were around 3.7 µM and around 11 µM, respectively.

Turning to `O=C(COc1ccccc1)NC(c1ccc(C#Cc2ccccc2)cc1)c1cc(Cl)c2cccnc2c1O` (stereo not shown) [Example 141, N-{(5-chloro-8-hydroxyquinolin-7-yl)[4-(phenylethynyl)phenyl]methyl}-2-phenoxyacetamide], in assay [1], the inhibition at […] turned out to be 58% and the “Agg-2 FRET Median PCT INHIB” value is reported as 50%. Also, at Agg-1 (read-out: Agg1 %), the inhibition at 7.4 µM is 48%.

With `O=C(Cc1ccccc1)NC(c1ccccc1Cl)c1cc(Cl)c2cccnc2c1O` (stereo not shown) [N-[(5-chloro-8-hydroxyquinolin-7-yl)(2-chlorophenyl)methyl]-2-phenylacetamide], the IC50 in assay [1] (read-out: Agg2 IC50) and in assay [1] (setting [2]) was 1.54 µM each time. Moreover, the inhibition at […] on Agg-1 (@ 1200 nM, read-out: Agg1 %) came to 29%.

With `O=C(CNCc1cccc2ccccc12)NC(c1ccccc1Cl)c1cc(Cl)c2cccnc2c1O` (stereo not shown) [Example 231, N-[(5-chloro-8-hydroxyquinolin-7-yl)(2-chlorophenyl)methyl]-N2-(1-naphthylmethyl)glycinamide], the figures for the IC50 (in assay [1] (read-out: Agg2 IC50); on Agg-1) were 1.37 µM and around 20 µM, respectively.

As for `CCCCCc1ccc(OCC(=O)NC(c2ccccc2Cl)c2cc(Cl)c3cccnc3c2O)cc1` (stereo not shown) [N-[(5-chloro-8-hydroxyquinolin-7-yl)(2-chlorophenyl)methyl]-2-(4-pentylphenoxy)acetamide], the inhibition at 22 µM in assay [1] (@ 22000 nM, read-out: Agg2 %) turned out to be 50%. The inhibition at 33 µM on Agg-1 (@ 33000 nM, read-out: Agg1 %) came out at 44%.

On to `O=C(COc1ccccc1)NC(c1ccc2c(c1)CCO2)c1cc(Cl)c2cccnc2c1O` (stereo not shown) [Example 170, N-[(5-chloro-8-hydroxyquinolin-7-yl)(2,3-dihydro-1-benzofuran-5-yl)methyl]-2-phenoxyacetamide], for which, in assay [1] (read-out: Agg2 IC50), the IC50 was 2.4 µM. In addition, the inhibition at 7.4 µM on Agg-1 (read-out: Agg1 %) stood at 43%.

Regarding `COc1ccc(C(NC(=O)COc2ccccc2)c2cc(Cl)c3cccnc3c2O)cc1OCc1ccccc1` (stereo not shown) [N-[[3-(benzyloxy)-4-methoxyphenyl](5-chloro-8-hydroxyquinolin-7-yl)methyl]-2-phenoxyacetamide], the IC50 in assay [1] (read-out: Agg2 IC50) was found to be 1.04 µM. Moreover, the inhibition at 7.5 µM on Agg-1 (@ 7500 nM, read-out: Agg1 %) was determined as 54%.

In the case of `C/C=C/C(NC(=O)COc1ccccc1)c1cc(Cl)c2cccnc2c1O` (stereo not shown) [Example 187, N-[(2E)-1-(5-chloro-8-hydroxyquinolin-7-yl)but-2-en-1-yl]-2-phenoxyacetamide], the IC50 in assay [1] (read-out: Agg2 IC50) and in assay [1] (setting [2]) was 2.53 µM throughout. In addition, the inhibition at 0.8 µM on Agg-1 (@ 800 nM, read-out: Agg1 %) was 40%.

As for `O=C(NC(c1ccc2c(c1)OCO2)c1cc(Cl)c2cccnc2c1O)OCc1ccccc1` (stereo not shown) [benzyl [1,3-benzodioxol-5-yl(5-chloro-8-hydroxyquinolin-7-yl)methyl]carbamate], the IC50 is 1.56 µM in assay [1] (read-out: Agg2 IC50), 1.56 µM in assay [1] (setting [2]) and above 3 µM at Agg-1.

Consider `O=C(NC(c1ccco1)c1cc(Cl)c2cccnc2c1O)OCc1ccccc1` (stereo not shown) [benzyl [(5-chloro-8-hydroxyquinolin-7-yl)(2-furyl)methyl]carbamate], for which the “Agg-2 FRET Median PCT INHIB” value in assay [1] stood at 33%. Besides, the IC50 (in assay [1] (read-out: Agg2 IC50); at Agg-1) was above 20 µM in each case.

Regarding `COc1cc(OC)cc(OCC(=O)NC(c2ccccc2Cl)c2cc(Cl)c3cccnc3c2O)c1` (stereo not shown) [N-[(5-chloro-8-hydroxyquinolin-7-yl)(2-chlorophenyl)methyl]-2-(3,5-dimethoxyphenoxy)acetamide], the IC50 in assay [1] (read-out: Agg2 IC50) is 1 µM; on Agg-1, around 22 µM.

In the case of `CCc1cccc(OCC(=O)NC(c2ccccc2Cl)c2cc(Cl)c3cccnc3c2O)c1` (stereo not shown) [N-[(5-chloro-8-hydroxyquinolin-7-yl)(2-chlorophenyl)methyl]-2-(3-ethylphenoxy)acetamide], in assay [1] (read-out: Agg2 IC50), the IC50 came to 1.28 µM. In addition, the inhibition at 10 µM at Agg-1 (@ 10000 nM, read-out: Agg1 %) is 48%.

Take `O=C(CNCc1ccccn1)NC(c1ccccc1)c1cc(Cl)c2cccnc2c1O` (stereo not shown) [Example 227, N-[(5-chloro-8-hydroxyquinolin-7-yl)(phenyl)methyl]-N2-(pyridin-2-ylmethyl)glycinamide]: the IC50 was 3.87 µM in assay [1] (read-out: Agg2 IC50) and above 50 µM at Agg-1.

With `O=C(COc1ccccc1)NC(c1cccc(Oc2ccccc2)c1)c1cc(Cl)c2cccnc2c1O` (stereo not shown) [Example 131, N-[(5-chloro-8-hydroxyquinolin-7-yl)(3-phenoxyphenyl)methyl]-2-phenoxyacetamide], the values for the IC50 (in assay [1] (read-out: Agg2 IC50); on Agg-1) were 4.1 µM and above 67 µM, respectively.

As to `O=C(COc1ccccc1)NC(c1ccccc1[N+](=O)[O-])c1cc(Cl)c2cccnc2c1O` (stereo not shown) [N-[(5-chloro-8-hydroxyquinolin-7-yl)(2-nitrophenyl)methyl]-2-phenoxyacetamide], the inhibition at […] in assay [1] turned out to be 58%. For the same compound, the IC50 in assay [1] (setting [2]) was 1.21 µM. In addition, the inhibition at 7.4 µM on Agg-1 (read-out: Agg1 %) was found to be 48%.

For the compound `O=C(COc1ccccc1)NC(c1ccc2c(c1)OCCO2)c1cc(Cl)c2cccnc2c1O` (stereo not shown) [N-[(5-chloro-8-hydroxyquinolin-7-yl)(2,3-dihydro-1,4-benzodioxin-6-yl)methyl]-2-phenoxyacetamide], the IC50 in assay [1] (read-out: Agg2 IC50) was 0.85 µM. For the same compound, on Agg-1 (read-out: Agg1 %), the inhibition at 7.4 µM was found to be 51%.

For the compound `O=C(COc1ccccc1)NC(c1ccc(F)cc1)c1cc(Cl)c2cccnc2c1O` (stereo not shown) [N-[(5-chloro-8-hydroxyquinolin-7-yl)(4-fluorophenyl)methyl]-2-phenoxyacetamide], the 50% inhibitory concentration (IC50) in assay [1] (read-out: Agg2 IC50) was 1.2 µM. Besides, the inhibition at 67 µM on Agg-1 (@ 67000 nM, read-out: Agg1 %) stood at 48%.

As to `CC(C)(C)c1csc(-c2ccc(C(NC(=O)COc3ccccc3)c3cc(Cl)c4cccnc4c3O)cc2)n1` (stereo not shown) [Example 146, N-[[4-(4-tert-butyl-1,3-thiazol-2-yl)phenyl](5-chloro-8-hydroxyquinolin-7-yl)methyl]-2-phenoxyacetamide], the inhibition at 11 µM in assay [1] (@ 11000 nM) was found to be 49%. Besides, on Agg-1 (@ 66700 nM, read-out: Agg1 %), the inhibition at 66.7 µM came out at 42%.

Regarding `O=C(COc1ccccc1)NC(c1ccccc1)c1cc(N2CCCC2)c2cccnc2c1O` (stereo not shown) [N-[(8-hydroxy-5-pyrrolidin-1-ylquinolin-7-yl)(phenyl)methyl]-2-phenoxyacetamide], the IC50 in assay [1] (read-out: Agg2 IC50) and in assay [1] (setting [2]) was 10.5 µM throughout. For the same compound, at Agg-1 (@ 22200 nM, read-out: Agg1 %), the inhibition at 22.2 µM is 49%.

In the case of `O=C(COc1ccccc1)NC(c1cc2ccccc2o1)c1cc(Cl)c2cccnc2c1O` (stereo not shown) [Example 168, N-[1-benzofuran-2-yl(5-chloro-8-hydroxyquinolin-7-yl)methyl]-2-phenoxyacetamide], the 50% inhibitory concentration (IC50) in assay [1] (read-out: Agg2 IC50) was 0.4 to 1.2 µM. Moreover, on Agg-1 (@ 66700 nM, read-out: Agg1 %), the inhibition at 66.7 µM is 49%.

`Cc1ccc(-c2cccc(C(Cc3cc(Cl)c4cccnc4c3O)NC(=O)C(C)(C)Oc3ccc(Cl)cc3)c2)s1` (stereo not shown): the inhibition at 22 µM in assay [1] (read-out: Agg-2 IC50 (μM) or % Inhibition) turned out to be 51%. In addition, the inhibition at 66.7 µM on Agg-1 (% inhibition @ 66.7 μM, read-out: Agg-1 IC50 (μM) or % Inhibition) was 47%.

As usually defined, the IC50 is the concentration needed to halve the response being measured.
